Measured values reported in patent publication US10266535B2, “Inhibitor of FLT3 kinase and use thereof” (HEFEI INSTITUTES OF PHYSICAL SCIENCE, CHINESE ACADEMY OF …, priority 2015, dated 2019).
Like-named read-outs stand apart in the source and are kept apart here.

Columns and labels:
[1] = test system: MOLM-13 (expressing FLT3/ITD mutant gene and wild-type FLT3 gene); assay: Cell proliferation, Cell Titer-Glo, MOLM-13; format: cell-based; conditions: Homo sapiens
Experimental: (§1) The above cell lines were constructed by our laboratory.
(§2) The number of viable cells was determined by quantification of ATP in living cells using the Cell Titer-Glo® (Promega, USA) chemiluminescence cell viability assay kit.

[2] = test system: TEL-BaF3-BLK (stably expressing BLK kinase); assay: Cell proliferation, Cell Titer-Glo, TEL-BaF3-BLK; format: cell-based; conditions: Mus musculus; incubated for 72 hours
Experimental: as §1, §2

[3] = test system: U937 (expressing wild-type FLT3 gene); assay: Cell proliferation, Cell Titer-Glo, U937; format: cell-based, human; conditions: Homo sapiens, U-937, 72 h
Experimental: as §1, §2

[4] = test system: MV4-11 (expressing FLT3/ITD mutant gene); assay: Cell proliferation, Cell Titer-Glo, MV4-11; format: cell-based; conditions: Homo sapiens
Experimental: as §1, §2

[5] = test system: TEL-BaF3-BMX (stably expressing BMX kinase); assay: Cell proliferation, Cell Titer-Glo, TEL-BaF3-BMX; format: cell-based; conditions: Mus musculus; incubated for 72 hours
Experimental: as §1, §2

[6] = test system: TEL-BaF3-FLT3-D835Y (stably expressing FLT3 D835Y mutant activated kinase); assay: Cell proliferation, Cell Titer-Glo, TEL-BaF3-FLT3-D835Y; format: cell-based; conditions: Mus musculus
Experimental: as §1, §2

[7] = test system: TEL-cKIT-BaF3 (stably expressing cKIT kinase); assay: Cell proliferation, Cell Titer-Glo, TEL-cKIT-BaF3; format: cell-based; conditions: Mus musculus; incubated for 72 hours
Experimental: as §1, §2

pro-B cell BaF3 = assay: Cell proliferation, Cell Titer-Glo, BaF3; format: cell-based; conditions: Mus musculus, incubated for 72 hours
Experimental: as §1, §2

[8] = test system: TEL-JAK1-BaF3 (stably expressing JAK1 kinase); assay: Cell proliferation, Cell Titer-Glo, TEL-JAK1-BaF3; format: cell-based; conditions: Mus musculus; incubated for 72 hours
Experimental: as §1, §2

[9] = test system: TEL-BaF3-EGFR (stably expressing EGFR kinase); assay: Cell proliferation, Cell Titer-Glo, TEL-BaF3-EGFR; format: cell-based; conditions: Mus musculus; incubated for 72 hours
Experimental: as §1, §2

[10] = test system: MOLM-14 (expressing FLT3/ITD mutant gene and wild-type FLT3 gene); assay: Cell proliferation, Cell Titer-Glo, MOLM-14; format: cell-based; conditions: Homo sapiens
Experimental: as §1, §2

[11] = test system: TEL-BaF3-FLT3/ITD (stably expressing FLT3/ITD mutant activated kinase); assay: Cell proliferation, Cell Titer-Glo, TEL-BaF3-FLT3/ITD; format: cell-based, mouse; conditions: Mus musculus, 72 h, incubated for 72 hours; read-out: TEL-BaF3-FLT3/ITD IC50
Experimental: as §1, §2

[12] = test system: TPR-MET-BaF3 (stably expressing MET kinase); assay: Cell proliferation, Cell Titer-Glo, TPR-MET-BaF3; format: cell-based; conditions: Mus musculus; incubated for 72 hours
Experimental: as §1, §2

BTK protein kinase = BTK protein kinase (Homo sapiens (Human), UniProt Q06187); assay: In vitro inhibition activity (enzymatic activity), ADP-Glo, BTK; format: biochemical; conditions: ATP 10 μM
Sequence of BTK protein kinase (Q06187 whole entry): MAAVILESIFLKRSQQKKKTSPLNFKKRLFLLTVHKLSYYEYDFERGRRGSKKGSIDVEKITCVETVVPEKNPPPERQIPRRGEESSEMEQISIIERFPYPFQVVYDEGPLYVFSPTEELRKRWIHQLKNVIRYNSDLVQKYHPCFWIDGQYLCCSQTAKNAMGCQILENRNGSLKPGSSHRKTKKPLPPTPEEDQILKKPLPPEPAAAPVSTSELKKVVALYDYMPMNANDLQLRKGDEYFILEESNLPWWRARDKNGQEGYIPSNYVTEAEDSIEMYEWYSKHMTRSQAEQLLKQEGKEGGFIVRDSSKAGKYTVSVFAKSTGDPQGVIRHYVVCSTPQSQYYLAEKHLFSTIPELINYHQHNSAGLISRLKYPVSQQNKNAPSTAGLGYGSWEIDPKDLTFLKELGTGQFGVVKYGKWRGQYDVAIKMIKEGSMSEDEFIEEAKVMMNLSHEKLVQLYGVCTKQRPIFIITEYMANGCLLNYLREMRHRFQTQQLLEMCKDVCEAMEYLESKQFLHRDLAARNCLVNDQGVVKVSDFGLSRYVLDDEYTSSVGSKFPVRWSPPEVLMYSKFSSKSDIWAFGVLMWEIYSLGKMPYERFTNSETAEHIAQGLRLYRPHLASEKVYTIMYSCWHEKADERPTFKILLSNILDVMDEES

[13] = test system: BaF3-FLT3-ITD-F691L (stably expressing FLT3/ITD F691L mutant activated kinase); assay: Cell proliferation, Cell Titer-Glo, BaF3-FLT3-ITD-F691L; format: cell-based; conditions: Mus musculus
Experimental: as §1, §2

[14] = test system: BaF3-FLT3-ITD-D835Y (stably expressing FLT3/ITD D835Y mutant activated kinase); assay: Cell proliferation, Cell Titer-Glo, BaF3-FLT3-ITD-D835Y; format: cell-based; conditions: Mus musculus
Experimental: as §1, §2

[15] = test system: OCI-AML-3 (expressing FLT3 A680V mutant gene); assay: Cell proliferation, Cell Titer-Glo, OCI-AML3; format: cell-based; conditions: Homo sapiens, incubated for 72 hours
Experimental: as §1, §2

[16] = MOLM-13, incubated for 72 hours, read-out: MOLM-13 IC50
[17] = incubated for 72 hours, read-out: U937 IC50
[18] = MV4-11, incubated for 72 hours, read-out: MV4-11 IC50
[19] = incubated for 72 hours, read-out: TEL-BaF3-FLT3-D835Y IC50
[20] = MOLM-14, incubated for 72 hours, read-out: MOLM-14 IC50
[21] = incubated for 72 hours, read-out: BaF3-FLT3-ITD-F691L IC50
[22] = incubated for 72 hours, read-out: BaF3-FLT3-ITD-D835Y IC50

Compound	IC50 [1, 16] [µM]	IC50 [2] [µM]	IC50 [3, 17] [µM]	IC50 [4, 18] [µM]	IC50 [5] [µM]	IC50 [6, 19] [µM]	IC50 [7] [µM]	IC50 (pro-B cell BaF3) [µM]	IC50 [8] [µM]	IC50 [9] [µM]	IC50 [10, 20] [µM]	IC50 [11] [µM]	IC50 [12] [µM]	IC50 (BTK protein kinase) [µM]	other results
N#CCC(=O)N1CCC[C@@H](n2nc(-c3ccc(Oc4ccccc4)cc3)c3c(N)ncnc32)C1 [Compound 20]	0.16	0.52	> 10	0.2	0.047	0.15	3.3	> 10	> 10	4.7	0.41	0.12	> 10	–	–
Nc1ncnc2c1c(-c1ccc(Oc3ccccc3)cc1)nn2[C@@H]1CCCN(C(=O)[C@H](N)Cc2ccccc2)C1 [Compound 26, (R)-2-amino-1-((R)-3-(4-amino-(4-phenoxyphenyl)-1H-pyrazolo[3,4-d]pyrimidin-1-yl)piperidin-1-yl)-3-phenylpropan-1-one]	0.2	2.9	2.4	0.28	1.3	0.36	3.5	1.5	2	1.3	0.29	0.16	2	0.098	–
CS(=O)(=O)NC1CCC(n2nc(-c3ccc(Oc4ccccc4)cc3)c3c(N)ncnc32)CC1 (stereo not drawn) [Compound 78, N-(4-(4-amino-3-(4-phenoxyphenyl)-1H-pyrazolo[3,4-d]pyrimidin-1-yl)cyclohexyl)methanesulfonamide]	–	0.004	–	–	0.038	–	0.32	6	–	–	–	–	–	–	IC50 ([1]; MOLM-13, 72 h, read-out: MOLM-13 IC50 [μM]): 0.019 µM; IC50 ([3]; read-out: U937 IC50 [μM], incubated for 72 hours): 3.6 µM; IC50 ([4]; MV4-11, 72 h, read-out: MV4-11 IC50 [μM]): 0.018 µM; IC50 ([6]; 72 h, read-out: TEL-BaF3-FLT3-D835Y IC50 [μM]): 0.0076 µM; IC50 ([13]; 72 h, read-out: BaF3-FLT3-ITD-F691L IC50 [μM]): 0.27 µM; IC50 ([14]; 72 h, read-out: BaF3-FLT3-ITD-D835Y IC50 [μM]): 0.053 µM; IC50 ([10]; MOLM-14, 72 h, read-out: MOLM-14 IC50 [μM]): 0.11 µM
NCC(=O)N1CCC[C@@H](n2nc(-c3ccc(Oc4ccccc4)cc3)c3c(N)ncnc32)C1 [Compound 43, (R)-2-amino-1-(3-(4-amino-(4-phenoxyphenyl)-1H-pyrazolo[3,4-d]pyrimidin-1-yl)piperidin-1-yl)ethanone]	0.02	0.12	7.21	0.022	0.022	–	–	3.8	–	–	0.028	0.007	2.77	0.028	IC50 [13, 21]: 1.1 µM; IC50 [14, 22]: 0.41 µM; IC50 [15]: 5.98 µM
Nc1ncnc2c1c(-c1ccc(Oc3ccccc3)cc1)nn2[C@@H]1CCCN(C(=O)[C@H](N)Cc2ccc(O)cc2)C1 [Compound 10, (R)-2-amino-1-((R)-3-(4-amino-(4-phenoxyphenyl)-1H-pyrazolo[3,4-d]pyrimidin-1-yl)piperidin-1-yl)-3-(4-hydroxyphenyl)propan-1-one]	0.064	1	3.4	0.061	0.84	0.064	1.1	1.2	0.4	3.7	0.11	0.11	1.4	0.128	–
CC(C)[C@@H](N)C(=O)N1CCC[C@@H](n2nc(-c3ccc(Oc4ccccc4)cc3)c3c(N)ncnc32)C1 (stereo in doubt) [Compound 45, (R)-2-amino-1-((R)-3-(4-amino-(4-phenoxyphenyl)-1H-pyrazolo[3,4-d]pyrimidin-1-yl)piperidin-1-yl)-3-methylbutanone]	0.025	0.096	> 10	0.027	0.092	–	–	1.4	–	–	–	0.017	1.38	0.26	IC50 [13, 21]: 0.37 µM; IC50 [15]: 4.2 µM
CN1CCC(C(=O)N2CCC[C@@H](n3nc(-c4ccc(Oc5ccccc5)cc4)c4c(N)ncnc43)C2)CC1 [Compound 33, (R)-(3-(4-amino-(4-phenoxyphenyl)-1H-pyrazolo[3,4-d]pyrimidin-1-yl)piperidin-1-yl)(1-methylpiperidin-4-yl)methanone]	0.16	0.61	> 10	0.16	0.07	0.14	2.01	5	–	–	0.22	0.077	1.45	0.421	IC50 [13, 21]: 0.28 µM; IC50 [14, 22]: 0.63 µM; IC50 [15]: 5.3 µM
Nc1ncnc2c1c(-c1ccc(Oc3ccccc3)cc1)nn2[C@@H]1CCCN(C(=O)[C@H](N)Cc2c[nH]c3ccccc23)C1 [Compound 8, (R)-2-amino-1-((R)-3-(4-amino-(4-phenoxyphenyl)-1H-pyrazolo[3,4-d]pyrimidin-1-yl)piperidin-1-yl)-3-(1H-indol-3-yl)propan-1-one]	0.18	0.56	1	0.27	0.55	0.089	0.75	0.62	0.27	1.4	0.31	0.27	–	0.254	–
CC(O)C(=O)N1CCC[C@@H](n2nc(-c3ccc(Oc4ccccc4)cc3)c3c(N)ncnc32)C1 (stereo partly drawn) [Compound 23, 1-((R)-3-(4-amino-(4-phenoxyphenyl)-1H-pyrazolo[3,4-d]pyrimidin-1-yl)piperidin-1-yl)-2-hydroxylpropan-1-one]	0.29	2.8	4.3	0.32	0.088	0.43	4.8	> 10	> 10	6.5	0.63	0.091	> 10	0.204	–
Nc1ncnc2c1c(-c1ccc(Oc3ccccc3)cc1)nn2[C@@H]1CCCN(S(N)(=O)=O)C1 [Compound 4, (R)-3-(4-amino-(4-phenoxyphenyl)-1H-pyrazolo[3,4-d]pyrimidin-1-yl)piperidin-1-sulfonamide]	0.23	1.4	–	0.3	0.82	0.16	4.9	> 10	> 10	> 10	0.68	–	> 10	–	–
Nc1ncnc2c1c(-c1ccc(Oc3ccccc3)cc1)nn2[C@@H]1CCCN(C(=O)C(F)(F)F)C1 [Compound 2, (R)-1-(3-(4-amino-(4-phenoxyphenyl)-1H-pyrazolo[3,4-d]pyrimidin-1-yl)piperidin-1-yl)-2,2,2-trifluoroethanone]	0.29	0.63	> 10	0.3	0.082	0.13	1.9	2	1.4	6.1	0.72	0.12	4.7	–	–
CC[C@@H](C)[C@@H](N)C(=O)N1CCC[C@@H](n2nc(-c3ccc(Oc4ccccc4)cc3)c3c(N)ncnc32)C1 [Compound 25, (2R,3R)-2-amino-1-((R)-3-(4-amino-(4-phenoxyphenyl)-1H-pyrazolo[3,4-d]pyrimidin-1-yl)piperidin-1-yl)-3-methylpentan-1-one]	0.12	1.1	1.9	0.12	0.51	0.18	3.1	1.7	3.3	0.89	0.19	0.088	1.7	0.216	–
